Data published in ChEMBL document CHEMBL1138103, “Synthesis and antibacterial activity of new fluoroquinolones containing a substituted N-(phenethyl)piperazine moiety” (2006).
Values after ≈ are worked out from the molar mass of the structure shown.

Assays:
Assay type in all cases: functional
Staphylococcus aureus [1] = test: microbe, parasite or virus in culture; details: ATCC 6538P
Description: Antibacterial activity against Staphylococcus aureus ATCC 6538p by agar-dilution method

Bacillus subtilis = test: microbe, parasite or virus in culture; details: ATCC 6633
Description: Antibacterial activity against Bacillus subtilis ATCC 6633 by agar-dilution method

[2] = system: Staphylococcus epidermidis; test: microbe, parasite or virus in culture; details: ATCC 12228
Description: Antibacterial activity against Staphylococcus epidermidis ATCC 12228 by agar-dilution method

Escherichia coli = test: microbe, parasite or virus in culture; details: ATCC 8739
Description: Antibacterial activity against Escherichia coli ATCC 8739 by agar-dilution method

Klebsiella pneumoniae = test: microbe, parasite or virus in culture; details: ATCC 10031
Description: Antibacterial activity against Klebsiella pneumoniae ATCC 10031 by agar-dilution method

Pseudomonas aeruginosa = test: microbe, parasite or virus in culture; details: ATCC 9027
Description: Antibacterial activity against Pseudomonas aeruginosa ATCC 9027 by agar-dilution method

Staphylococcus aureus [3] = test: Antibacterial activity against methicillin-resistant Staphylococcus aureus 1 by agar-dilution method
Staphylococcus aureus [4] = test: Antibacterial activity against methicillin-resistant Staphylococcus aureus 2 by agar-dilution method

Row | Structure (SMILES) | MIC (Staphylococcus aureus [1]) | MIC (Bacillus subtilis) | MIC [2] | MIC (Escherichia coli) | MIC (Klebsiella pneumoniae) | MIC (Pseudomonas aeruginosa) | MIC (Staphylococcus aureus [3]) | MIC (Staphylococcus aureus [4])
1 | CCn1cc(C(=O)O)c(=O)c2cc(F)c(N3CCN(C/C(=N\OC)c4ccccc4)CC3)cc21 | 25 µg/mL (≈ 53.6 µM) | 6.25 µg/mL (≈ 13.4 µM) | 25 µg/mL (≈ 53.6 µM) | 12.5 µg/mL (≈ 26.8 µM) | 12.5 µg/mL (≈ 26.8 µM) | > 100 µg/mL |  | 
2 | CCn1cc(C(=O)O)c(=O)c2cc(F)c(N3CCN(C/C(=N\OC)c4ccc(F)cc4)CC3)cc21 | 6.25 µg/mL (≈ 12.9 µM) | 3.13 µg/mL (≈ 6.46 µM) | 1.56 µg/mL (≈ 3.22 µM) | 3.13 µg/mL (≈ 6.46 µM) | 0.78 µg/mL (≈ 1.61 µM) | 100 µg/mL (≈ 206 µM) |  | 
3 | CO/N=C(\CN1CCN(c2cc3c(cc2F)c(=O)c(C(=O)O)cn3C2CC2)CC1)c1ccccc1Cl | 0.39 µg/mL (≈ 0.76 µM) | 0.049 µg/mL (≈ 0.0955 µM) | 0.195 µg/mL (≈ 0.38 µM) | 0.025 µg/mL (≈ 0.0487 µM) | 0.013 µg/mL (≈ 0.0253 µM) | 6.25 µg/mL (≈ 12.2 µM) | 0.39 µg/mL (≈ 0.76 µM) | 0.39 µg/mL (≈ 0.76 µM)
4 | CO/N=C(\CN1CCN(c2cc3c(cc2F)c(=O)c(C(=O)O)cn3C2CC2)CC1)c1ccc(Cl)cc1 | 0.78 µg/mL (≈ 1.52 µM) | 1.56 µg/mL (≈ 3.04 µM) | 0.39 µg/mL (≈ 0.76 µM) | 1.56 µg/mL (≈ 3.04 µM) | 0.78 µg/mL (≈ 1.52 µM) | > 100 µg/mL | 0.39 µg/mL (≈ 0.76 µM) | 0.39 µg/mL (≈ 0.76 µM)
5 | CCn1cc(C(=O)O)c(=O)c2cc(F)c(N3CCN(C/C(=N\OC)c4ccc(Cl)cc4Cl)CC3)nc21 | 25 µg/mL (≈ 46.6 µM) | 12.5 µg/mL (≈ 23.3 µM) | 25 µg/mL (≈ 46.6 µM) | 12.5 µg/mL (≈ 23.3 µM) | 6.25 µg/mL (≈ 11.7 µM) | 50 µg/mL (≈ 93.2 µM) |  | 
6 | O=C(O)c1cn(C2CC2)c2cc(N3CCN(C/C(=N\O)c4ccccc4Cl)CC3)c(F)cc2c1=O | 0.39 µg/mL (≈ 0.782 µM) | 0.78 µg/mL (≈ 1.56 µM) | 0.195 µg/mL (≈ 0.391 µM) | 0.78 µg/mL (≈ 1.56 µM) | 0.025 µg/mL (≈ 0.0501 µM) | 25 µg/mL (≈ 50.1 µM) | 0.39 µg/mL (≈ 0.782 µM) | 0.39 µg/mL (≈ 0.782 µM)
7 | O=C(O)c1cn(C2CC2)c2cc(N3CCN(C/C(=N\O)c4ccc(Cl)cc4)CC3)c(F)cc2c1=O | 0.39 µg/mL (≈ 0.782 µM) | 0.78 µg/mL (≈ 1.56 µM) | 0.195 µg/mL (≈ 0.391 µM) | 0.78 µg/mL (≈ 1.56 µM) | 0.049 µg/mL (≈ 0.0982 µM) | 100 µg/mL (≈ 200 µM) | 0.195 µg/mL (≈ 0.391 µM) | 0.098 µg/mL (≈ 0.196 µM)
8 | CO/N=C(\CN1CCN(c2cc3c(cc2F)c(=O)c(C(=O)O)cn3C2CC2)CC1)c1ccc(F)cc1F | 6.25 µg/mL (≈ 12.1 µM) | 0.78 µg/mL (≈ 1.52 µM) | 6.25 µg/mL (≈ 12.1 µM) | 1.56 µg/mL (≈ 3.03 µM) | 0.78 µg/mL (≈ 1.52 µM) | 12.5 µg/mL (≈ 24.3 µM) |  | 
9 | CO/N=C(\CN1CCN(c2cc3c(cc2F)c(=O)c(C(=O)O)cn3C2CC2)CC1)c1ccccc1 | 12.5 µg/mL (≈ 26.1 µM) | 6.25 µg/mL (≈ 13.1 µM) | 12.5 µg/mL (≈ 26.1 µM) | 6.25 µg/mL (≈ 13.1 µM) | 3.13 µg/mL (≈ 6.54 µM) | 100 µg/mL (≈ 209 µM) |  | 
10 | O=C(O)c1cn(C2CC2)c2cc(N3CCNCC3)c(F)cc2c1=O [CIPROFLOXACIN] | 0.39 µg/mL (≈ 1.18 µM) | 0.025 µg/mL (≈ 0.0754 µM) | 0.39 µg/mL (≈ 1.18 µM) | 0.025 µg/mL (≈ 0.0754 µM) | 0.025 µg/mL (≈ 0.0754 µM) | 0.78 µg/mL (≈ 2.35 µM) | 0.39 µg/mL (≈ 1.18 µM) | 0.39 µg/mL (≈ 1.18 µM)
11 | CCn1cc(C(=O)O)c(=O)c2cc(F)c(N3CCN(C/C(=N\OC)c4ccc(F)cc4F)CC3)cc21 | 12.5 µg/mL (≈ 24.9 µM) | 1.56 µg/mL (≈ 3.1 µM) | 12.5 µg/mL (≈ 24.9 µM) | 25 µg/mL (≈ 49.8 µM) | 12.5 µg/mL (≈ 24.9 µM) | > 100 µg/mL |  | 
12 | O=C(CN1CCN(c2cc3c(cc2F)c(=O)c(C(=O)O)cn3C2CC2)CC1)c1ccccc1Cl | 0.39 µg/mL (≈ 0.806 µM) | 0.049 µg/mL (≈ 0.101 µM) | 0.195 µg/mL (≈ 0.403 µM) | 0.098 µg/mL (≈ 0.203 µM) | 0.025 µg/mL (≈ 0.0517 µM) | 6.25 µg/mL (≈ 12.9 µM) | 0.39 µg/mL (≈ 0.806 µM) | 0.39 µg/mL (≈ 0.806 µM)
13 | CCn1cc(C(=O)O)c(=O)c2cc(F)c(N3CCN(C/C(=N\OC)c4ccccc4)CC3)nc21 | 25 µg/mL (≈ 53.5 µM) | 12.5 µg/mL (≈ 26.7 µM) | 25 µg/mL (≈ 53.5 µM) | 12.5 µg/mL (≈ 26.7 µM) | 12.5 µg/mL (≈ 26.7 µM) | > 100 µg/mL |  | 
14 | CCn1cc(C(=O)O)c(=O)c2cc(F)c(N3CCN(C/C(=N\OC)c4ccc(F)cc4)CC3)nc21 | 12.5 µg/mL (≈ 25.7 µM) | 6.25 µg/mL (≈ 12.9 µM) | 6.25 µg/mL (≈ 12.9 µM) | 6.25 µg/mL (≈ 12.9 µM) | 1.56 µg/mL (≈ 3.21 µM) | 100 µg/mL (≈ 206 µM) |  | 
15 | CO/N=C(\CN1CCN(c2cc3c(cc2F)c(=O)c(C(=O)O)cn3C2CC2)CC1)c1ccc(Cl)cc1Cl | 0.39 µg/mL (≈ 0.712 µM) | 0.025 µg/mL (≈ 0.0457 µM) | 0.39 µg/mL (≈ 0.712 µM) | 0.025 µg/mL (≈ 0.0457 µM) | 0.012 µg/mL (≈ 0.0219 µM) | 1.56 µg/mL (≈ 2.85 µM) | 0.39 µg/mL (≈ 0.712 µM) | 0.39 µg/mL (≈ 0.712 µM)
16 | CCn1cc(C(=O)O)c(=O)c2cc(F)c(N3CCN(C/C(=N\OC)c4ccc(Cl)cc4Cl)CC3)cc21 | 12.5 µg/mL (≈ 23.3 µM) | 12.5 µg/mL (≈ 23.3 µM) | 12.5 µg/mL (≈ 23.3 µM) | 12.5 µg/mL (≈ 23.3 µM) | 6.25 µg/mL (≈ 11.7 µM) | > 100 µg/mL |  | 
17 | CO/N=C(\CN1CCN(c2cc3c(cc2F)c(=O)c(C(=O)O)cn3C2CC2)CC1)c1ccc(F)cc1 | 6.25 µg/mL (≈ 12.6 µM) | 6.25 µg/mL (≈ 12.6 µM) | 6.25 µg/mL (≈ 12.6 µM) | 3.13 µg/mL (≈ 6.3 µM) | 3.13 µg/mL (≈ 6.3 µM) | 50 µg/mL (≈ 101 µM) |  | 
18 | CCn1cc(C(=O)O)c(=O)c2cc(F)c(N3CCNCC3)cc21 [NORFLOXACIN] | 0.78 µg/mL (≈ 2.44 µM) | 0.049 µg/mL (≈ 0.153 µM) | 0.78 µg/mL (≈ 2.44 µM) | 0.049 µg/mL (≈ 0.153 µM) | 0.049 µg/mL (≈ 0.153 µM) | 3.13 µg/mL (≈ 9.8 µM) | 0.78 µg/mL (≈ 2.44 µM) | 0.78 µg/mL (≈ 2.44 µM)
19 | O=C(CN1CCN(c2cc3c(cc2F)c(=O)c(C(=O)O)cn3C2CC2)CC1)c1ccc(Cl)cc1 | 0.39 µg/mL (≈ 0.806 µM) | 0.049 µg/mL (≈ 0.101 µM) | 0.195 µg/mL (≈ 0.403 µM) | 0.025 µg/mL (≈ 0.0517 µM) | 0.013 µg/mL (≈ 0.0269 µM) | 1.56 µg/mL (≈ 3.22 µM) | 0.39 µg/mL (≈ 0.806 µM) | 0.39 µg/mL (≈ 0.806 µM)
20 | CCn1cc(C(=O)O)c(=O)c2cc(F)c(N3CCNCC3)nc21 [ENOXACIN] | 1.56 µg/mL (≈ 4.87 µM) | 0.098 µg/mL (≈ 0.306 µM) | 0.78 µg/mL (≈ 2.44 µM) | 0.098 µg/mL (≈ 0.306 µM) | 0.098 µg/mL (≈ 0.306 µM) | 6.25 µg/mL (≈ 19.5 µM) |  | 
21 | CCn1cc(C(=O)O)c(=O)c2cc(F)c(N3CCN(C/C(=N\OC)c4ccc(F)cc4F)CC3)nc21 | 25 µg/mL (≈ 49.7 µM) | 1.56 µg/mL (≈ 3.1 µM) | 25 µg/mL (≈ 49.7 µM) | 50 µg/mL (≈ 99.3 µM) | 25 µg/mL (≈ 49.7 µM) | > 100 µg/mL |  | 
